From publication PMC6458995, “MAP4K4 Inhibition Promotes Survival of Human Stem Cell-Derived Cardiomyocytes and Reduces Infarct Size In Vivo” (Cell Stem Cell, 2019)

Tests used:
vCor.4U cells = assay: Hypoxia-reoxygenation assay (CellTox Green); format: cell-based, human; conditions: 3 cycles of 0.1% O2 over 8 h
Protocol: vCor.4U cells were plated at 10,000 well^-1 in Cor.4U medium using black, clear-bottom 96-well plates pre-treated with Geltrex (GIBCO). After incubation overnight at 37°C, the media was replaced with phenol red-free DMEM (GIBCO) supplemented with 2% FCS, 2 mM […], 1 mM pyruvate and 10 mM D-galactose. DMX-5804 prepared in DMSO and CellTox Green (Promega) were added and incubated for 1 hr at 37°C. A breathable seal (AeraSeal) was added to the plate before transferring to a CLARIOstar plate reader (BMG Labtech) equipped with an atmospheric control unit. Oxygen concentration ramping was executed as follows (% O2, hr), at 37°C and 5% CO2. Fluorescence measurements (λex/em 483-14/530-30) were taken using the multiple scan and direct bottom features (5 positions read), and matrix averaging of each position every 20 min. Data were blank corrected, averaged (n = 2) and subjected to exponential smoothing with a damping factor of 0.3.

infarct size = assay: Myocardial infarction (ischemia-reperfusion), infarct size by TTC/Evans blue; format: in vivo, CD-1 female mice; conditions: 50 mg kg^−1 twice by gavage 10 h apart
rat ventricular myocytes = assay: Rat cardiac muscle cell death induced by H2O2 (sub-G1 DNA, flow cytometry); format: cell-based
Protocol: Ventricular myocytes from 1 to 3 day-old Sprague-Dawley rats were enzymatically dissociated, purified by Percoll gradient centrifugation and pre-plating, and cultured as described ([Oh et al., 2003]). To detect hypodiploid DNA, flow cytometry was performed (XL or LSRII, BD Biosciences), using propidium iodide to measure DNA content and sampling > 5000 cells for each histogram. Myocyte identity was confirmed using FITC-conjugated MF-20 antibody to sarcomeric MyHC (R&D Systems). To detect dissipation of mitochondrial membrane potential (ΔΨm), cells were incubated for 60 min in 5 μg ml^-1 5, 5′, 6, 6’-tetrachloro-1, 1’, 3, 3′-tetraethylbenzimidazolyl carbocyanine iodide (DePsipher; R&D Systems). When ΔΨm is intact, mitochondrial uptake and aggregation of the dye result in red fluorescence; when ΔΨm is disturbed, the dye diffuses to the cytoplasm and reverts to its monomeric green form. Myocyte identity was confirmed using mouse antibody to sarcomeric tropomyosin (Sigma-Aldrich) conjugated with Texas Red-X (Molecular Probes).

Row | Compound | protection of human cardiomyocyte survival, hypoxia-reoxygenation (vCor.4U cells) | infarct size as a proportion of the area at ischemic risk (infarct size; post-injury treatment (1 h after reperfusion), vehicle 55.1%) [%] | infarct size as a proportion of the area at ischemic risk (infarct size; pre-injury treatment (20 min prior to ischemia), vehicle 48.5%) [%] | rat cardiomyocyte death (rat ventricular myocytes; H2O2, even at 1 μM) | inhibition at 10 µM (rat ventricular myocytes; Ventricular myocyte, rat ventricular myocytes, 10 μM) [%] | adverse effect of compound (rat ventricular myocytes; rat ventricular myocytes, any of the concentrations (1-10 μM))
1 | COCCOc1ccc(-c2cn(-c3ccccc3)c3nc[nH]c(=O)c23)cc1 [DMX-5804, 5-[4-(2-methoxy-ethoxy)-phenyl]-7-phenyl-3,7-dihydro-pyrrolo[2,3-d]pyrimidin-4-one] | confirmed | 25.6 | 20.9 |  |  | 
2 | Oc1ncnc2c1c(-c1ccccc1)cn2-c1ccccc1 [F1386-0303, 5,7-diphenyl-7H-pyrrolo[2,3-d]pyrimidin-4-ol] |  |  |  | inhibited | ~50 | No adverse effect
